Source: US9463189B2 (BPV Holdings, LLC, priority 2007, dated 2016)
Structures can show the parent of a compound that is named as a salt.

Experiments:
NASH mice = test: Hepatic fibrosis, Trichrome staining of liver sections; assay type: in vivo, C57B1/6J mice
Excerpt: Early Steatosis Model: C57B1/6J mice (22-39 days old) mice were used for the study. Mice were fed normal chow food (Lab Diet, 5P14Prolab Animal Diet, PMI Nutritional International, Brentwood, Mo., Cat# RMH 2500) or 58% high fat diet (HFD, 58 kcal % fat and corn starch with purple dye, Research Diets, New Brunswick, N.J., Cat# D12330 equivalent to Western diet) for 120-150 days. […] This group is referred to as the HFD-low body group in FIG. 1A (insulin & liver fat accumulation˜normal). On the other hand, one fifth of the mice gained 60-70% higher body weight (compared to normal chow fed mice) while on the same HFD diet (NASH group, very high insulin and liver fat) further shown in FIG. 1A. […]
The development of NASH was further confirmed using histological analyses of liver. The sections were analyzed for 1) hepatic steatosis 2) necroinflammation, and 3) fibrosis. Histological analyses of hepatic steatosis was assessed by quantitative image analysis of Oil Red O stain in liver sections and defined as the percentage of Oil Red ‘O’ positive area relative to the total image area.
Following 120-150 days on the HFD, mice in the NASH group were treated with Compound 2 (5 or 10 mg/Kg/day) or vehicle (10% Encapsin) for 42 days. […] Body weight and food intake was measured throughout the study. […]

liver of NASH mice = test: Liver gene expression by Affymetrix microarray in NASH mice; assay type: in vivo, C57B1/6J mice; conditions: liver mRNA, 10 mg/kg/day, 35 days
Method: Gene expression was analyzed using Affynmatrix microarray followed by GOBY software analyses. Data (Table 5, below) represent average fold change in gene expression in the Compound 2/vehicle group.
Gene expression was analyzed using Affynmatrix microarray followed by GOBY software analyses. Data (Table 6, below) represent average fold change in gene expression in the Compound 2/vehicle group.
Animals were placed in Surgivet/ANESCO ISOTECY chamber (Vetequip Incorporated, Waukesha, Wis.) filled with Isoflurane (1-chloro-2,2,2-trifluoroethyl difluoromethyl ether, CAS#26675-46-7), USP Liquid for Inhalation (Baxter, Deerfield, Ill., Cat #10019-360-40) for anesthetization. Cardiac blood is taken with BD 1 mL Syringe Tuberculin Slip Tip (Becton, Dickinson & Company, Franklin Lakes, N.J., Cat #309602) with B-D25G 5/8 needle (Becton Dickinson, Franklin Lakes, N.J., Cat #305122) and was saved into Microtainer brand tube with EDTA (Becton, Dickinson and Company, Cat #365973). The heart, liver, kidney, adipose (white and brown) and muscle were collected using fine forceps and fine scissors. Tissues were stored in aluminum foils and flash frozen in liquid nitrogen for further analyses. ˜100 mg of heart, liver, adipose (white) were saved in tubes containing 1 mL RNAlater RNA Stabilization Reagent (Qiagen, Valencia, Calif., Cat #76106) and flash frozen in liquid nitrogen for gene array analyses. The liver, muscle and adipose (white) were fixed in 10% Zinc Formalin (Fisher Diagnostics, Middletown, Va., Cat#032-065, CAS #50-00-0) for histology analyses. In addition, the liver and muscle were frozen in Cryomold Standard Disposable Specimen Mold 25 mm×20 mm×5 mm (Sakura Finetechnical U.S.A., Inc., Torrance, Calif., Cat #4557) with O.C.T Compound (Sakura Finetechnical U.S.A., Inc., Torrance, Calif., Cat #4583) and frozen on dry ice mixed with 2-Methylbutane (Isopentane) (Sigma-Aldrich, St. Louis, Mo., CAS #78-78-4, Cat #270342-2L.
Total RNA was extracted using the RNeasy mini protocol (Qiagen, Cat: 74106), gene array analyses was performed using Mouse Genome 430.2.0 Affymetrix CHIP and VAMPIRE analyses software at the Veterans Affair, UCSD core facility, UCSD, San Diego, Calif.

For C[C@@H]1CN(Cc2ccc(OC(F)(F)F)cc2)C[C@H](C)N1S(=O)(=O)c1cccc2c1C[C@@H](C(=O)O)C2 [Compound 2, (S)-4-[cis-2,6-Dimethyl-4-(4-trifluoromethoxy-benzyl)-piperazine-1-sulfonyl]-indan-2-carboxylic acid tosylate], the “attenuation of progression of fibrosis, Trichrome staining of liver sections” value (NASH mice; 10 mg/Kg/day, p<0.03, FIG. 3B) was 41%, the “progression to fibrosis measured by histological presence of collagen deposits in the liver” value (NASH mice; oral administration, NASH mice, summary) was “attenuated progression to fibrosis” and the “S100 A6 (inflammatory marker) gene expression vs. vehicle” value (liver of NASH mice) was “reduction”. For the same compound, the “CD14 (Monocyte/Macrophage marker) gene expression, Fold change over vehicle” value (liver of NASH mice; 4 hours post dosing, fed state) was −2 fold, the “GADD45 (Inflammatory marker) gene expression, Fold change over vehicle” value (liver of NASH mice; 4 hours post dosing, fed state) was 8 fold and the “ICAM 1 (Inflammatory marker) gene expression, Fold change over vehicle” value (liver of NASH mice; 4 hours post dosing, fed state) was −2.1 fold. The “MARCO (Monocyte/Macrophage marker) gene expression, Fold change over vehicle” value (liver of NASH mice; 4 hours post dosing, fed state) was −2.5 fold, the “Orosomucoid 2 (Acute Phase Reactant Protein) gene expression, Fold change over vehicle” value (liver of NASH mice; 4 hours post dosing, fed state) was −2.4 fold and the “Serum myeloid A1 (Acute Phase Reactant Protein) gene expression, Fold change over vehicle” value (liver of NASH mice; 4 hours post dosing, fed state) was −1.9 fold. For the same compound, the “Serum myeloid A2 (Acute Phase Reactant Protein) gene expression, Fold change over vehicle” value (liver of NASH mice; 4 hours post dosing, fed state) was −2.2 fold, the “CTGF gene expression, Fold change over vehicle” value (liver of NASH mice; 4 hours post dosing, fed state) was “Not changed” and the “Col1a1 gene expression, Fold change over vehicle” value (liver of NASH mice; 4 hours post dosing, fed state) was −6.3 fold. The “Col1a2 gene expression, Fold change over vehicle” value (liver of NASH mice; 4 hours post dosing, fed state) was −3 fold, the “Col3a1 gene expression, Fold change over vehicle” value (liver of NASH mice; 4 hours post dosing, fed state) was −3 fold and the “Col5a2 gene expression, Fold change over vehicle” value (liver of NASH mice; 4 hours post dosing, fed state) was −2.2 fold. The “Col6a2 gene expression, Fold change over vehicle” value (liver of NASH mice; 4 hours post dosing, fed state) was −8.9 fold, the “Fibronectin gene expression, Fold change over vehicle” value (liver of NASH mice; 4 hours post dosing, fed state) was “Not changed” and the “Timp 1 gene expression, Fold change over vehicle” value (liver of NASH mice; 4 hours post dosing, fed state) was −4.5 fold. For the same compound, the “Timp 2 gene expression, Fold change over vehicle” value (liver of NASH mice; 4 hours post dosing, fed state) was “Not changed” and the “Vimentin gene expression, Fold change over vehicle” value (liver of NASH mice; 4 hours post dosing, fed state) was −2.3 fold.
